Laboratory results published in patent US11219603B2, “Stable dosage form of etidronate-cytarabine conjugate, and use thereof” (MAXWELL BIOTECH GROUP LTD., priority 2015, dated 2022).

Assay: Thermal behaviour of solutions for lyophilization (DSC)
Type: physicochemical
Conditions: for Thermal effect (event), in words: wrapped cell reads 'Tgt/endothermicity before alloy expansion'
Source text: The thermal properties of the solutions provided for lyophilization were investigated. Differential Scanning calorimetry (DSC) was used to identify the lowest possible transient temperature in the solution throughout the entire lyophilization process, including freezing and dehydration. For the solutions of most pharmaceutical products, this parameter is represented by the glass transition temperature or “Tgt”. All components and their amounts in the solution contribute to the final value of Tgt. This temperature is usually several degrees below the temperature at which the sintered material can crumble during the lyophilization process (collapse temperature, Tc). Without determining the collapse temperature by such methods as cryomicroscopy, the glass transition temperature can be used to select the primary drying temperature. Until the primary drying is completed, the initial drying temperature should be set in such a manner that there are no vials for which the glass transition temperature has been exceeded (or Tc, if known). Otherwise, the structure of the sintered material may get broken. On the one hand, the lyophilization temperature should be close to Tgt, so that the process proceeds efficiently, and on the other hand, it cannot exceed Tgt due to process requirements and qualitative product parameters. Thus, the values of collapse and glass transition temperature are important parameters for calculating safe upper temperature limits, which can be used for lyophilization.
Based on the proposed filling of the vials with the drug (100 mg of active ingredient per vial), potential solutions for filling were prepared. The excipients included sterile water for injection (SWFI), 50 mM succinate and tartrate buffers at pH 5, MgCl2, sulfobutylether β-cyclodextrin (SBEβCD), mannitol and dextran 40. In addition, for solutions containing mannitol, a study of the effect of the annealing stage (the lyophilization process stage when the samples are kept at a certain temperature below the freezing point for a certain period of time) on the improvement the crystallinity of the finished product was performed. […]

[1] = SWFI, MBC-11 25 mg/mL, MgCl2 43.25 mmol/L, Mannitol 25 mg/mL, Annealing at −20° C.
[2] = SWFI, MBC-11 25 mg/mL, MgCl2 43.25 mmol/L, Mannitol 25 mg/mL, Annealing at −24° C.
[3] = SWFI, MBC-11 25 mg/mL, MgCl2 43.25 mmol/L, pH 4.59
[4] = SWFI, MBC-11 50 mg/mL, MgCl2 86.5 mmol/L, pH 4.52
[5] = Succinate buffer, MBC-11 25 mg/mL, MgCl2 86.5 mmol/L, pH 4.52
[6] = Tartrate buffer, MBC-11 25 mg/mL, MgCl2 86.5 mmol/L, pH 4.48

## CC(O)(P(=O)(O)O)P(=O)(O)OP(=O)(O)OC[C@H]1O[C@@H](n2ccc(N)nc2=O)[C@@H](O)[C@@H]1O (stereo partly drawn) [MBC-11]
SWFI, MBC-11 25 mg/mL, MgCl2 43.25 mmol/L, Dextran-40 5%
  Thermal effect (event): Tgt: −21 °C (Tgt)
SWFI, MBC-11 25 mg/mL, MgCl2 43.25 mmol/L, Mannitol 25 mg/mL
  Thermal effect (event): possible crystallization: at −27 °C
[1]
  Thermal effect (event): crystallization after temperature processing: None
  Thermal effect (event): specific endothermicity: −22 °C
[2]
  Thermal effect (event): crystallization after annealing: None
  Thermal effect (event): weak endothermicity: −22 °C
[3]
  Thermal effect (event): Tgt: −22 °C (Tgt)
  Thermal effect (event): endotherm: −21 °C
SWFI, MBC-11 25 mg/mL, MgCl2 86.5 mmol/L, Dextran-40 5%
  Thermal effect (event): Tgt: −27 °C (Tgt)
SWFI, MBC-11 25 mg/mL, MgCl2 86.5 mmol/L, Mannitol 25 mg/mL
  Thermal effect (event), in words: Tgt/endothermicity
SWFI, MBC-11 25 mg/mL, MgCl2 86.5 mmol/L, pH 4.35
  Thermal effect (event): endothermicity: −26 °C
SWFI, MBC-11 50 mg/mL, 20% SBEβCD
  Thermal effect (event): Tgt: −26 °C (Tgt)
SWFI, MBC-11 50 mg/mL, MgCl2 86.5 mmol/L, Dextran-40 5%
  Thermal effect (event): Tgt: −24 °C (Tgt)
SWFI, MBC-11 50 mg/mL, MgCl2 86.5 mmol/L, Mannitol 25 mg/mL
  Thermal effect (event), in words: Tgt/endothermicity
[4]
  Thermal effect (event): Tgt: −34 °C (Tgt)
  Thermal effect (event): endothermicity: −21 °C
SWFI, MBC-11 50 mg/mL, MgCl2 173 mmol/L, Dextran-40 5%
  Thermal effect (event): Tgt: −36 °C (Tgt)
SWFI, MBC-11 50 mg/mL, MgCl2 173 mmol/L, Mannitol 25 mg/mL
  Thermal effect (event), in words: Tgt/endothermicity
SWFI, MBC-11 50 mg/mL, MgCl2 173 mmol/L, pH 4.23
  Thermal effect (event): endothermicity: −26 °C
SWFI, MBC-11 50 mg/mL, no excipient, pH 5.2
  Thermal effect (event): Tgt: −21 °C (Tgt)
SWFI, MBC-11 100 mg/mL, MgCl2 173 mmol/L
  Thermal effect (event): endothermicity: −22 °C
SWFI, MBC-11 100 mg/mL, MgCl2 173 mmol/L, Dextran-40 5%
  Thermal effect (event): Tgt: −29 °C (Tgt)
SWFI, MBC-11 100 mg/mL, MgCl2 350 mmol/L
  Thermal effect (event): endothermicity: −26 °C
SWFI, MBC-11 100 mg/mL, no excipient, pH 5.4
  Thermal effect (event): Tgt: −21 °C (Tgt)
Succinate buffer, MBC-11 25 mg/mL, MgCl2 86.5 mmol/L, Dextran-40 5%
  Thermal effect (event): Tgt: −30 °C (Tgt)
Succinate buffer, MBC-11 25 mg/mL, MgCl2 86.5 mmol/L, Mannitol 25 mg/mL
  Thermal effect (event), in words: Tgt/endothermicity
[5]
  Thermal effect (event): crystallization: −34 °C
  Thermal effect (event): endothermicity: −26 °C
Tartrate buffer, MBC-11 25 mg/mL, MgCl2 86.5 mmol/L, Dextran-40 5%
  Thermal effect (event): Tgt: −26 °C (Tgt)
Tartrate buffer, MBC-11 25 mg/mL, MgCl2 86.5 mmol/L, Mannitol 25 mg/mL
  Thermal effect (event): Tgt: −40 °C (Tgt)
[6]
  Thermal effect (event): Tgt: −40 °C (Tgt)
  Thermal effect (event): crystallization: −30 °C
  Thermal effect (event): endothermicity: −22 °C
